Laboratory results published in publication PMC5118709, “Identification of Polo-like kinase 1 interaction inhibitors using a novel cell-based assay” (Scientific Reports, 2016).
Several values for one entry are separate records, joined by “and”; a condition that tells them apart may be missing. Equal values may be shown once.

Legend:
CRAF-BRAF = biological target: T1, CRAF-BRAF (Homo sapiens, UniProt P04049+P15056); experiment: control BRET CRAF-BRAF (transient); format: cell-based; settings: for Primary screen CRAF-BRAF (transient) % Inihibition / Primary screen CRAF-BRAF (transient) % Quench RLuc: 10-25 μM; for Confirmation CRAF-BRAF (transient) % Inihibition / Confirmation CRAF-BRAF (transient) % Quench RLuc: confirmation screen
T1 construct: expressed in transfected cells; host or cells: HEK293T, transient transfection with PEI
T1 sequence (P04049 whole entry): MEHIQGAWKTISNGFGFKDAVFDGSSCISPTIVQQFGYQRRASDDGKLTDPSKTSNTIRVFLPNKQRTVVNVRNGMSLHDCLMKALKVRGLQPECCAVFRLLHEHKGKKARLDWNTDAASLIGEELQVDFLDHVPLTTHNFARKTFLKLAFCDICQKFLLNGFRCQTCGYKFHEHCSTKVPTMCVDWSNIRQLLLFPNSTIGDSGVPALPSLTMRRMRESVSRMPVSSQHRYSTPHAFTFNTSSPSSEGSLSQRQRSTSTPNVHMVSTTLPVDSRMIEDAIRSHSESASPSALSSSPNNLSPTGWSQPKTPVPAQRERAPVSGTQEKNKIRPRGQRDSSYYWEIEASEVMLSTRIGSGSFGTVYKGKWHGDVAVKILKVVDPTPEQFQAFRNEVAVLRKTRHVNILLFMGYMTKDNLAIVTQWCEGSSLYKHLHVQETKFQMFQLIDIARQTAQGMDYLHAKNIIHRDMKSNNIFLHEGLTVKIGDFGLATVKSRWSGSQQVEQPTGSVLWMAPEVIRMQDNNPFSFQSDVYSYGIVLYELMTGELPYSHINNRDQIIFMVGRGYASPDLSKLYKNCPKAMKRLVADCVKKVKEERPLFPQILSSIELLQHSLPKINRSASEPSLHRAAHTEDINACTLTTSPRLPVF
T1 sequence (P15056 whole entry): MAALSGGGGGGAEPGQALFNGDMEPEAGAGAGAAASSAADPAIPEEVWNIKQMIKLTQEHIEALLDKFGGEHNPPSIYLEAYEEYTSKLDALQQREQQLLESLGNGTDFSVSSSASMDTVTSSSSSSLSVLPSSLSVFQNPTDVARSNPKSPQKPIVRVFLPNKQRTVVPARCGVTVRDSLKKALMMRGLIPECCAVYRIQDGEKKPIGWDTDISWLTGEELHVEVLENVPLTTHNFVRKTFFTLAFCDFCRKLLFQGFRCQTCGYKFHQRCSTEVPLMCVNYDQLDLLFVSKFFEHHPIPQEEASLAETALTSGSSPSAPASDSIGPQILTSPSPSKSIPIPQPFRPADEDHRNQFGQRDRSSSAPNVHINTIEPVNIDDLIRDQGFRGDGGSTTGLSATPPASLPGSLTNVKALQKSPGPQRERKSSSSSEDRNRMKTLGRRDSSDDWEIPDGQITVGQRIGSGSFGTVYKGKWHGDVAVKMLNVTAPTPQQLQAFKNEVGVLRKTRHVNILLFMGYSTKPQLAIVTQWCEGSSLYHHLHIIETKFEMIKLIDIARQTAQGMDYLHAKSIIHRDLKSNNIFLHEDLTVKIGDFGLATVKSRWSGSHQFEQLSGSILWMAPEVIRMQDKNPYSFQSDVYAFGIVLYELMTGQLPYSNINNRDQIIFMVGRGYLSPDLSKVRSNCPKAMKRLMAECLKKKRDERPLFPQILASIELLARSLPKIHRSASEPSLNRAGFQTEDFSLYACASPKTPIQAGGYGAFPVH
Procedure: (§1) We used our cell-based assay to screen a library of 112 983 compounds available in-house at IRIC’s High-Throughput Screening (HTS) platform (see Materials & Methods). Compounds were tested on cells in 384-well plates at concentrations between 10 μM and 25 μM, depending on their concentration in the original stocks solutions. BRET readings were taken 2 hours after treatment. Results obtained show a tight, close to normal distribution centered around zero inhibition relative to DMSO-treated controls (Fig. 1D). Compounds inducing at least 30% BRET inhibition were selected. From these, auto-fluorescent compounds and those that induced more than 90% reduction in RLucII luminescence were removed, leaving 800 primary hits, that we then re-tested using the same assay. In parallel, we tested these compounds in a control BRET assay for an unrelated pair of interacting proteins (BRAF-CRAF[46]) to exclude false-positive compounds that could reduce the BRET signal by interfering with light or by modifying the activity of GFP or Luc.
(§2) For the confirmation screen, the same procedure as for the primary screen was followed, except that HEK293T cells were also seeded at 6.25 millions of cells per simple CellStack on day 1 for transient transfections. These cells were transfected on day 3 with Luc-Map (5 μg) and Plk1-GFP (25 μg) pIRESHyg3 plasmids using polyethylenimine (PEI). To identify false-positives compounds, Luc-CRAF (4 μg) and GFP-BRAF (20 μg) plasmids were also transfected with PEI following the published procedure.

HeLa cells [1] = experiment: mitotic index assay (phospho-Histone H3) in HeLa cells; format: cell-based; settings: for Mitotic index (%): 10-25 μM, 7 h; for effect on mitotic index, purchased compounds: 10 μM
Plk1-Map interaction [2] = biological target: T2, Plk1-Map interaction (Homo sapiens, UniProt P53350); experiment: LUMIER co-immunoprecipitation assay Plk1-Map; settings: for Average-Beads (mean luminescence) / Co-IP Values relative to top in plate column = 1 / Luminescence on beads, duplicate wells / effect on the Plk1-Map interaction in co-IP: 10-25 μM, 2 h; for Relative Luminescence Unit: mean divided by maximum mean of the compounds; for Luminescence on beads, duplicate wells: raw data
T2 sequence (P53350 whole entry): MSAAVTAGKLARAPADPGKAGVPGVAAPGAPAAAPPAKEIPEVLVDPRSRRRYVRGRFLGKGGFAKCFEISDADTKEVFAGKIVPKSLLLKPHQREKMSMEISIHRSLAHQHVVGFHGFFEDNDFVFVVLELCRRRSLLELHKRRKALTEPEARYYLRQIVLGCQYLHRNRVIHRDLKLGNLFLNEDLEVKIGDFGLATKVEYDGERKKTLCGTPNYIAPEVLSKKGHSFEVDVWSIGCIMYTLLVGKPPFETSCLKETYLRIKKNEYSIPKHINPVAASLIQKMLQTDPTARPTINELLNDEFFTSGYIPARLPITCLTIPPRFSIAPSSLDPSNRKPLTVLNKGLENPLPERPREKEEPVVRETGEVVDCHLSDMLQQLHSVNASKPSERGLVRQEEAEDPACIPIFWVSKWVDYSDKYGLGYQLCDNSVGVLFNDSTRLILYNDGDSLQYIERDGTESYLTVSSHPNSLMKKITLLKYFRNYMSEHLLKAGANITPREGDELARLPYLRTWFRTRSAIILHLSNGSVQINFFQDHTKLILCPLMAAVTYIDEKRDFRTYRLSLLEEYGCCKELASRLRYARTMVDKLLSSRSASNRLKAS
Procedure: After cell lysis, GFP-Plk1 was immunoprecipitated and co-purified Map-Luc was measured by luminescence following addition of the luciferase substrate, coelenterazine.
Half a million stably transfected Map205-RLucII/GFP10-Plk1 cells in Tyrode solution were seeded per well in a 96-well plate and allowed to settle for 30 min at 37 °C. […] Plates were then centrifuged at 4 °C at 3000 rpm for 5 minutes to pellet cells. Cells were then lysed with the IP buffer (20 mM Tris pH 7.5, 150 mM NaCl, 2 mM EGTA, 0.5% NP-40, 1 mM DTT, PMSF, aprotinin and leupeptin) and incubated on ice for 20 minutes. Plates were centrifuged again at 4 °C at 3400 rpm for 10 minutes, and the soluble fraction was transferred into a new 96-well plate. Note that 10 μl of this fraction was transferred in white 96-well plates from which the luminescence was read as a measure of the input amount of cell lysate for the co-IP. GFP-Plk1 was immunoprecipitated by adding 0.35 μl of anti-GFP antibody (Invitrogen). Plates were sealed and incubated on a rotator at 4 °C for 30 minutes. Then, 4 μl of pre-washed protein A magnetic beads (Invitrogen) were added to each well. Plates were sealed and incubated at 4 °C for 1h30. The extracts + beads were then transferred in a 96-well PCR plates and beads were washed 3 times with the IP buffer using a magnetic 96-well rack. The fourth wash was done in Tyrode solution, then beads were re-suspended with it and transferred in a white 96-well plate. […] Tyrode was also added to the plates containing the input fraction, then Coelenterazine h was added to the wells, and enhanced luminescence was read as described above.

Plk1-Map interaction [3] = biological target: T2, Plk1-Map interaction; experiment: BRET Plk1-Map, stable HEK293T Plk1-Luc/GFP-Map cell line; format: cell-based; design: cDNAs for the human full length Plk1; expressed in transfected cells; settings: for Primary screen Plk1-Map (stable) % Inihibition / Primary screen Plk1-Map (stable) % Quench RLuc: 10-25 μM, 2 h; for Confirmation Plk1-Map (stable) % Inihibition / Confirmation Plk1-Map (stable) % Quench RLuc: confirmation screen
Source text: To develop a cell-based assay for the identification of Plk1 interaction inhibitors, we used Bioluminescence Resonance Energy Transfer (BRET)[42][43]. The assay monitors the interaction in HEK293T cells between Plk1 and Map205, a protein that we previously identified as an interactor of Drosophila Polo (Plk1 ortholog) on its PBD[44]. Although no ortholog of Drosophila Map205 has been found in vertebrates, this protein robustly interacts with vertebrate Plk1. […] Importantly, crystallography with zebrafish Plk1 has recently shown that Map205 nevertheless docks in the canonical phosphopeptide binding site of the PBD, with the natural phospho-mimetic Glu314 residue (Fig. 1A)[45]. In our assay, human Plk1 and a fragment of Drosophila Map205 (Map205_254-416 = Map) are respectively fused to Renilla luciferase II (Luc) and GFP10 (GFP), giving rise to energy transfer when the proteins are in close proximity (Fig. 1B). […] All combinations of Plk1 and Map tagged with Luc and GFP were tested (Supplementary Fig. S1). The Plk1-Luc/GFP-Map combination was selected because it yielded the highest BRET dynamic window. We then generated clonal stable cell lines co-expressing these two fusion proteins. These cell lines behaved very similarly to each other in BRET, and we selected one line that gave a high and reproducible BRET signal, with a Z′ score of 0.78, indicative of a robust assay for the purpose of a chemical screen (Supplementary Fig. S1).
as §1
For BRET on transiently transfected cells, 48 hours after the transfection, medium was removed, cells were washed twice with PBS, and then Tyrode solution (140 mM NaCl, 2.7 mM KCl, 12 mM NaHCO3, 5.6 mM D-glucose, 0.49 mM MgCl2, 0.37 mM NaH2PO4, 25 mM HEPES, pH 7.4, where 1 mM CaCl2 was freshly added) was added to the cells. Total fluorescence was first measured using a FlexStation II microplate reader (Molecular Devices), where the GFP10 was excited at 400 nm and read at 510 nm. Then, cells were treated for 5 minutes with 2.5 μM coelenterazine 400a (Gold Technology) before reading BRET2 using the Mithras LB940 microplate reader (Berthold Technologies). BRET2 signal corresponds to the light emitted by the GFP10 acceptor constructs (515 nm ± 20 nm) divided by the light emitted by the RlucII donor constructs (400 nm ± 70 nm). Net BRET2 was calculated by subtracting the background BRET ratio of the RLucII plasmid alone from the BRET ratio obtained by the two BRET partners. The Net BRET2 was plotted according to the GFP10/RLucII ratio, which was obtained by dividing the total fluorescence by the RLucII emission.
For the high throughput chemical screen, cells were amplified and frozen as multiple 1 ml aliquots containing 25 millions of stable HEK293T Plk1-Luc/GFP-Map cells to ensure that cells at the same passage number are used during the screen. […] Five days later, cells were counted and re-suspended in Tyrode solution. […]

Plk1-Map interaction [4] = biological target: T2, Plk1-Map interaction; experiment: BRET Plk1-Map, transient Luc-Map/Plk1-GFP in HEK293T; format: cell-based; design: cDNAs for the human full length Plk1; expressed in transfected cells; settings: confirmation screen
Procedure: as §2

GST-PBD367-603 of Plk1 = GST-PBD367-603 of Plk1 (Homo sapiens, UniProt P53350); experiment: fluorescence polarization assay PBD-phosphopeptide; settings: for activity in the FP assay: 50 μM
Sequence of GST-PBD367-603 of Plk1 (P53350 367-603): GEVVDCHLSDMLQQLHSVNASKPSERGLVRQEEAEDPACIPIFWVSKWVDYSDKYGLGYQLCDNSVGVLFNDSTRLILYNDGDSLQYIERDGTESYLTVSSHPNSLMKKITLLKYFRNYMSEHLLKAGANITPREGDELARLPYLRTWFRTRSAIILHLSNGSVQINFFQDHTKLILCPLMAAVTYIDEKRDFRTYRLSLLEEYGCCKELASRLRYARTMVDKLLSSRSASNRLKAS
Procedure: In this assay, an optimal phosphopeptide for PBD binding is coupled with a FITC fluorophore and its binding to purified recombinant PBD of Plk1 is monitored by the change in polarization of incident light.
The FP buffer was composed of 10 mM Tris pH 8.0, 50 mM NaCl, 1 mM EDTA, 20% glycerol and 0.1% NP-40. The peptide (final concentration 10 nM) was always added to the wells of non-binding, black, 384-well plates, 1 hour after the addition of the protein with the buffer (+/− treatment, 10% DMSO). […] EC65s were used to perform the competitive assays with the non-labeled peptides and with the inhibitors. FP Inhibition was calculated with the formula: 100 − [((mPsample − mPfree peptide)\(mPDMSO − mPfree peptide)) × 100]. […] (Map peptide), and corresponding non-labeled peptides are identical but without FITC in N-terminal. […] Inhibition curves were fitted with GraphPad (Prism software).

HeLa cells [5] = experiment: mitotic defect phenotypes by immunofluorescence; format: cell-based; settings: 10 μM, 7 h
Procedure: HeLa cells were treated with these compounds along with the known PBD inhibitors PPG, TQ, Poloxin and the KD inhibitor BI2536 as controls, and then stained against α-Tubulin, pericentrin (a centrosome marker) and DNA (Fig. 2D). In all cases, there was a marked increase in the frequency of disorganized spindles compared with DMSO-treated control cells. This is expected as Plk1 plays multiple roles in spindle assembly and maintenance. […] Cpd 69, an analog of compound 122, induced a similar phenotype at lower concentrations (data not shown). This phenotype was not seen after treatment with BI2536.
For the mitotic defect phenotypes, 25 200 HeLa cells were plated on poly-L-lysine coated round cover slips in 24-well plates. The day after, cells were treated for 7 hours, and then washed with PHEM buffer at 37 °C before fixation in PHEM buffer containing 4% formaldehyde for 20 minutes at 37 °C. Cells were washed three times with TBS-tween 0.1% and plate was kept overnight at 4 °C. Next steps were followed as previously described except that coverslips were incubated in a dark wet chamber with antibodies. Anti-pericentrin (diluted 1:1000; Abcam), anti-α-tubulin DM1A (diluted 1:500; Sigma-Aldrich), Alexa Fluor 488 anti-rabbit and Texas-Red anti-mouse (diluted 1:200; Invitrogen) were used. Coverslips were mounted on slide using Vectashield media containing DAPI (Vector Laboratories).
Images shown in Fig. 2D were acquired on an AxioImager microscope (Carl Zeiss) with a 100x oil objective (NA 1.4 DICIII) and an AxioCam HRM camera (Carl Zeiss) using AxioVision software (Carl Zeiss).

HEK293T cells = experiment: mitotic index assay (phospho-Histone H3) in HEK293T cells
Procedure: For the mitotic index assay, 4000 HeLa cells or 5000 HEK293T cells per well were seeded in a 96-well plate. The day after, cells were incubated for 7 hours with different compounds, and then fixed by adding formaldehyde (4% final concentration) directly to each well. Plates were incubated 20 minutes at 37 °C, and then wells were rinsed three times with TBS-Tween 0.1%. A 1 hour block with PHEM buffer (60 mM Pipes, 25 mM HEPES, 10 mM EGTA, 4 mM MgSO4, pH 6.9) containing 2% BSA and 0.1% triton was performed, before addition of the primary antibody to the wells. The anti-phospho-Histone H3 (Ser10) antibody (EMD Millipore) was diluted 1:300 in PHEM buffer containing 2% BSA and added to the wells for 2 hours at room temperature in the dark. […] Plates were incubated for 1h 30 at room temperature in the dark, and then wells were washed 3 times with TBS-Tween 0.1%. A solution of Mowiol containing DAPI was finally added to the wells. Plates were kept at 4 °C in the dark until imaging using the 20x objective on an Operetta system (Perkin Elmer inc.). The mitotic index, corresponding to the percentage of pHH3 positive cells relative to the total number of DAPI-stained cells detected was calculated by the Operetta using the Harmony 3.5 software. Experiments were done in triplicates.

[6] = reaction with amino-protected amino acids (LC-MS); settings: room temperature
Procedure: Vinyl sulfones are reactive species that can alkylate substrates as a result of a nucleophilic attack on the distal carbon of the vinyl group. To evaluate the potential of Cpd 161 (vinyl sulfone) to react with proteins, we tested its reaction with nucleophilic amino acid side chains groups. […] To test whether Cpd 161 could react covalently with the PBD, we incubated them together and examined the molecular mass of the protein by SDS-PAGE (Fig. 7). […] Consistent with this idea, the extent of the shift depended on the concentration of Cpd 161 used (Fig. 7B) and also on the incubation time (Fig. 7C).
To a stirred solution of electrophile (0.02 mmol) and amino acid (1- 1.5eq) in DMF (0.3 ml) were added a few drops of a diluted aqueous solution of sodium bicarbonate. The reaction was monitored using an Agilent 6120 Quadrupole LC/MS system (Agilent Technologies). In all cases, the molecular ion of the product was observed.

Structure (SMILES)	Primary screen CRAF-BRAF (transient) % Inihibition (CRAF-BRAF) [%]	Primary screen CRAF-BRAF (transient) % Quench RLuc (CRAF-BRAF) [%]	Confirmation CRAF-BRAF (transient) % Inihibition (CRAF-BRAF) [%]	Confirmation CRAF-BRAF (transient) % Quench RLuc (CRAF-BRAF) [%]	Mitotic index (%) (HeLa cells [1])	Average-Beads (mean luminescence) (Plk1-Map interaction [2])	Co-IP Values relative to top in plate column = 1 (Plk1-Map interaction [2])	Relative Luminescence Unit (Plk1-Map interaction [2])	Luminescence on beads, duplicate wells (Plk1-Map interaction [2])	Primary screen Plk1-Map (stable) % Inihibition (Plk1-Map interaction [3]) [%]	Primary screen Plk1-Map (stable) % Quench RLuc (Plk1-Map interaction [3]) [%]	Confirmation Plk1-Map (stable) % Inihibition (Plk1-Map interaction [3]) [%]	Confirmation Plk1-Map (stable) % Quench RLuc (Plk1-Map interaction [3]) [%]	Confirmation Plk1-Map (transient) % Inihibition (Plk1-Map interaction [4]) [%]	Confirmation Plk1-Map (transient) % Quench RLuc (Plk1-Map interaction [4]) [%]	2 > pericentrin foci (percentage of cells) (HeLa cells [5]) [%]	Disorganized spindles (percentage of cells) (HeLa cells [5]) [%]	effect on mitotic index, purchased compounds (HEK293T cells; 10 μM)	effect on mitotic index, purchased compounds (HeLa cells [1])	effect on the Plk1-Map interaction in co-IP (Plk1-Map interaction [2])	other results
N#Cc1cccnc1S(=O)(=O)CCOC(=O)c1cccc(Cl)c1 [Cpd 15]	31.50	81.13	-4.59	86.14	0.81	18,942	0.017	0.017	18,060 and 19,824	67.91	84.93	41.55	78.03	53.01	72.97						IC50 (GST-PBD367-603 of Plk1; FP - IC50 (μM), Table S3): 5.7 ± 2.8 µM; IC50 (GST-PBD367-603 of Plk1; IC50 in FP, GST-PBD367-603 38 nM, 1 h pre-incubation, FITC-phosphopeptide 10 nM, Fig. 4C): 6 µM
COc1ccc(-c2oc3ccccc3c(=O)c2OS(=O)(=O)c2ccccc2)cc1 [Cpd 46]	16.40	63.54	19.45	66.12	29.44	601,974	0.219	0.219	584,340 and 619,608	53.18	82.37	30.35	91.04	-29.25	72.57						
COc1ccc(-c2oc3ccccc3c(=O)c2OS(=O)(=O)c2cc(Cl)ccc2Cl)cc1 [Cpd 122]	-8.30	44.16	3.03	35.15		1,018,574	0.776	0.776		44.05	86.60	30.57	79.14	-1.93	25.69	65 ± 2	85 ± 5	significant increase	significant increase	no effect	activity in the FP assay (GST-PBD367-603 of Plk1): little or no activity
COc1ccc(-c2oc3ccccc3c(=O)c2OS(=O)(=O)c2cc(OC)ccc2OC)cc1 [Cpd 69]	18.32	72.42	7.18	67.88	30.13	281,985	0.866	0.866	232,744 and 331,226	77.38	86.93	49.85	91.91	-0.61	62.73	2 ± 2	100 ± 0	significant increase	significant increase	no effect	effect on mitotic index, purchased compounds (HEK293T cells; 1 μM): small increase; activity in the FP assay (GST-PBD367-603 of Plk1): little or no activity
CC1=CC(=O)C(C(C)C)=C/C1=N\OC(=O)c1ccccc1C [Poloxin]																27 ± 21	61 ± 14				mitotic index (HeLa cells [1]; 25 μM): around 20%; time to completion of reaction with amino-protected histidine [6]: approximately 10 minutes; time to completion of reaction with amino-protected lysine [6]: approximately 10 minutes
